Experimental data: ChEMBL document CHEMBL1255447, “Efflux pumps, OprD porin, AmpC beta-lactamase, and multiresistance in Pseudomonas aeruginosa isolates from cystic fibrosis patients” (2010)
≈ marks a conversion by molar mass, not a printed value.

Assays:
[1] = test system: Pseudomonas aeruginosa; experiment: Antimicrobial activity against Pseudomonas aeruginosa isolate 17145c from fibrosis patient by Etest; format: functional
[2] = test system: Pseudomonas aeruginosa; experiment: Antimicrobial activity against Pseudomonas aeruginosa R70 Etest; format: functional
[3] = test system: Pseudomonas aeruginosa; experiment: microbe, parasite or virus in culture; conditions: isolate 13120
Description: Antimicrobial activity against Pseudomonas aeruginosa isolate 13120 from fibrosis patient by Etest

[4] = test system: Pseudomonas aeruginosa; experiment: Antimicrobial activity against Pseudomonas aeruginosa isolate 12142c from fibrosis patient by Etest; format: functional
[5] = test system: Pseudomonas aeruginosa; experiment: Antimicrobial activity against Pseudomonas aeruginosa isolate 1693c from fibrosis patient by Etest; format: functional
[6] = test system: Pseudomonas aeruginosa; experiment: Antimicrobial activity against Pseudomonas aeruginosa 1405-con D2 by Etest; format: functional
[7] = test system: Pseudomonas aeruginosa; experiment: Antimicrobial activity against Pseudomonas aeruginosa Z799/61 by Etest; format: functional
[8] = test system: Pseudomonas aeruginosa; experiment: Antimicrobial activity against Pseudomonas aeruginosa isolate 14169c from fibrosis patient by Etest; format: functional
[9] = test system: Pseudomonas aeruginosa; experiment: Antimicrobial activity against Pseudomonas aeruginosa isolate 13167 from fibrosis patient by Etest; format: functional
[10] = test system: Pseudomonas aeruginosa; experiment: Antimicrobial activity against Pseudomonas aeruginosa isolate 1726 from fibrosis patient by Etest; format: functional
[11] = test system: Pseudomonas aeruginosa; experiment: Antimicrobial activity against Pseudomonas aeruginosa isolate 12102 from fibrosis patient by Etest; format: functional
[12] = test system: Pseudomonas aeruginosa; experiment: Antimicrobial activity against Pseudomonas aeruginosa R20 Etest; format: functional
[13] = test system: Pseudomonas aeruginosa; experiment: Antimicrobial activity against Pseudomonas aeruginosa isolate 1495c from fibrosis patient by Etest; format: functional
[14] = test system: Pseudomonas aeruginosa; experiment: Antimicrobial activity against Pseudomonas aeruginosa isolate 1712c from fibrosis patient by Etest; format: functional
[15] = test system: Pseudomonas aeruginosa; experiment: Antimicrobial activity against Pseudomonas aeruginosa isolate 1253 from fibrosis patient by Etest; format: functional
[16] = test system: Pseudomonas aeruginosa; experiment: Antimicrobial activity against Pseudomonas aeruginosa isolate 1247c from fibrosis patient by Etest; format: functional
[17] = test system: Pseudomonas aeruginosa; experiment: microbe, parasite or virus in culture; conditions: 2779-con
Description: Antimicrobial activity against Pseudomonas aeruginosa 2779-con by Etest

[18] = test system: Pseudomonas aeruginosa; experiment: Antimicrobial activity against Pseudomonas aeruginosa isolate 17112 from fibrosis patient by Etest; format: functional
[19] = test system: Pseudomonas aeruginosa; experiment: Antimicrobial activity against Pseudomonas aeruginosa AHP Etest; format: functional
[20] = test system: Pseudomonas aeruginosa; experiment: Antimicrobial activity against Pseudomonas aeruginosa isolate 1240 from fibrosis patient by Etest; format: functional
[21] = test system: Pseudomonas aeruginosa; experiment: Antimicrobial activity against Pseudomonas aeruginosa isolate 1530c from fibrosis patient by Etest; format: functional
[22] = test system: Pseudomonas aeruginosa; experiment: Antimicrobial activity against Pseudomonas aeruginosa isolate 1248c from fibrosis patient by Etest; format: functional
[23] = test system: Pseudomonas aeruginosa; experiment: Antimicrobial activity against Pseudomonas aeruginosa isolate 1681c from fibrosis patient by Etest; format: functional
[24] = test system: Pseudomonas aeruginosa; experiment: Antimicrobial activity against Pseudomonas aeruginosa isolate 15107 from fibrosis patient by Etest; format: functional
[25] = test system: Pseudomonas aeruginosa; experiment: Antimicrobial activity against Pseudomonas aeruginosa isolate 1665 from fibrosis patient by Etest; format: functional
[26] = test system: Pseudomonas aeruginosa; experiment: Antimicrobial activity against Pseudomonas aeruginosa isolate 1529c from fibrosis patient by Etest; format: functional
[27] = test system: Pseudomonas aeruginosa; experiment: Antimicrobial activity against Pseudomonas aeruginosa isolate 16008 from fibrosis patient by Etest; format: functional
[28] = test system: Pseudomonas aeruginosa; experiment: Antimicrobial activity against Pseudomonas aeruginosa isolate 1352c from fibrosis patient by Etest; format: functional
[29] = test system: Pseudomonas aeruginosa; experiment: Antimicrobial activity against Pseudomonas aeruginosa isolate 15110c from fibrosis patient by Etest; format: functional
[30] = test system: Pseudomonas aeruginosa; experiment: Antimicrobial activity against Pseudomonas aeruginosa isolate 3149 from fibrosis patient by Etest; format: functional
[31] = test system: Pseudomonas aeruginosa; experiment: Antimicrobial activity against Pseudomonas aeruginosa M1251 by Etest
[32] = test system: Pseudomonas aeruginosa; experiment: Antimicrobial activity against Pseudomonas aeruginosa isolate 1333c from fibrosis patient by Etest; format: functional

SMILES	MIC [1]	MIC [3]	MIC [4]	MIC [5]	MIC [7]	MIC [9]	MIC [10]	MIC [13]	MIC [14]	MIC [15]	MIC [16]	MIC [17]	MIC [18]	MIC [19]	MIC [20]	MIC [21]	MIC [22]	MIC [23]	MIC [24]	MIC [25]	also measured
NCC[C@H](O)C(=O)N[C@@H]1C[C@H](N)[C@@H](O[C@H]2O[C@H](CN)[C@@H](O)[C@H](O)[C@H]2O)[C@H](O)[C@H]1O[C@H]1O[C@H](CO)[C@@H](O)[C@H](N)[C@H]1O [AMIKACIN]	64 µg/mL (≈ 109 µM)	1 µg/mL (≈ 1.71 µM)	> 64 µg/mL	1 µg/mL (≈ 1.71 µM)	1 µg/mL (≈ 1.71 µM)	64 µg/mL (≈ 109 µM)	2 µg/mL (≈ 3.42 µM)	> 64 µg/mL	> 64 µg/mL	32 µg/mL (≈ 54.6 µM)	> 64 µg/mL	1 µg/mL (≈ 1.71 µM)	1 µg/mL (≈ 1.71 µM)	≤ 0.5 µg/mL	4 µg/mL (≈ 6.83 µM)	32 µg/mL (≈ 54.6 µM)	> 64 µg/mL	64 µg/mL (≈ 109 µM)	> 64 µg/mL	> 64 µg/mL	MIC [2]: 1 µg/mL (≈ 1.71 µM); MIC [6]: 4 µg/mL (≈ 6.83 µM); MIC [8]: 32 µg/mL (≈ 54.6 µM); MIC [11]: 4 µg/mL (≈ 6.83 µM); MIC [12]: ≤ 0.5 µg/mL; MIC [26]: 64 µg/mL (≈ 109 µM); MIC [27]: 32 µg/mL (≈ 54.6 µM); MIC [28]: > 64 µg/mL; MIC [29]: > 64 µg/mL; MIC [30]: > 64 µg/mL; MIC [31]: 1 µg/mL (≈ 1.71 µM); MIC [32]: 64 µg/mL (≈ 109 µM)
C[C@H]1[C@H](NC(=O)/C(=N\OC(C)(C)C(=O)O)c2csc(N)n2)C(=O)N1S(=O)(=O)O [AZTREONAM]	0.5 µg/mL (≈ 1.15 µM)	16 µg/mL (≈ 36.7 µM)	> 64 µg/mL	1 µg/mL (≈ 2.3 µM)	≤ 0.12 µg/mL	16 µg/mL (≈ 36.7 µM)	0.5 µg/mL (≈ 1.15 µM)	> 64 µg/mL	> 64 µg/mL	16 µg/mL (≈ 36.7 µM)	4 µg/mL (≈ 9.19 µM)	32 µg/mL (≈ 73.5 µM)	> 64 µg/mL	0.5 µg/mL (≈ 1.15 µM)	4 µg/mL (≈ 9.19 µM)	2 µg/mL (≈ 4.59 µM)	> 64 µg/mL	32 µg/mL (≈ 73.5 µM)	2 µg/mL (≈ 4.59 µM)	> 64 µg/mL	MIC [26]: 0.5 µg/mL (≈ 1.15 µM); MIC [27]: 0.5 µg/mL (≈ 1.15 µM); MIC [28]: 32 µg/mL (≈ 73.5 µM); MIC [29]: > 64 µg/mL; MIC [30]: 64 µg/mL (≈ 147 µM); MIC [31]: 32 µg/mL (≈ 73.5 µM)
CC1(C)S[C@@H]2[C@H](NC(=O)C(C(=O)O)c3ccccc3)C(=O)N2[C@H]1C(=O)O (some centres not stated) [CARBENICILLIN]	≤ 16 µg/mL	256 µg/mL (≈ 677 µM)	> 512 µg/mL	128 µg/mL (≈ 338 µM)	≤ 16 µg/mL	> 512 µg/mL	≤ 16 µg/mL	> 512 µg/mL	> 512 µg/mL	256 µg/mL (≈ 677 µM)	128 µg/mL (≈ 338 µM)	128 µg/mL (≈ 338 µM)	512 µg/mL (≈ 1350 µM)	32 µg/mL (≈ 84.6 µM)	128 µg/mL (≈ 338 µM)	64 µg/mL (≈ 169 µM)	> 512 µg/mL	512 µg/mL (≈ 1350 µM)	128 µg/mL (≈ 338 µM)	> 512 µg/mL	MIC [2]: > 512 µg/mL; MIC [6]: 512 µg/mL (≈ 1350 µM); MIC [8]: 512 µg/mL (≈ 1350 µM); MIC [11]: 256 µg/mL (≈ 677 µM); MIC [12]: 64 µg/mL (≈ 169 µM); MIC [26]: 8 µg/mL (≈ 21.1 µM); MIC [27]: ≤ 16 µg/mL; MIC [28]: 512 µg/mL (≈ 1350 µM); MIC [29]: > 512 µg/mL; MIC [30]: > 512 µg/mL; MIC [31]: 512 µg/mL (≈ 1350 µM); MIC [32]: > 512 µg/mL
CO/N=C(\C(=O)N[C@@H]1C(=O)N2C(C(=O)O)=C(COC(C)=O)CS[C@H]12)c1csc(N)n1 [CEFOTAXIME]	128 µg/mL (≈ 281 µM)	128 µg/mL (≈ 281 µM)	> 256 µg/mL	128 µg/mL (≈ 281 µM)	0.5 µg/mL (≈ 1.1 µM)	> 256 µg/mL	16 µg/mL (≈ 35.1 µM)	> 256 µg/mL	> 256 µg/mL	128 µg/mL (≈ 281 µM)	128 µg/mL (≈ 281 µM)	> 256 µg/mL	> 256 µg/mL	4 µg/mL (≈ 8.78 µM)	256 µg/mL (≈ 562 µM)	32 µg/mL (≈ 70.3 µM)	> 256 µg/mL	> 256 µg/mL	256 µg/mL (≈ 562 µM)	> 256 µg/mL	MIC [2]: 256 µg/mL (≈ 562 µM); MIC [6]: > 256 µg/mL; MIC [8]: 128 µg/mL (≈ 281 µM); MIC [11]: 64 µg/mL (≈ 141 µM); MIC [12]: 4 µg/mL (≈ 8.78 µM); MIC [26]: 32 µg/mL (≈ 70.3 µM); MIC [27]: 64 µg/mL (≈ 141 µM); MIC [28]: > 256 µg/mL; MIC [29]: > 256 µg/mL; MIC [30]: 64 µg/mL (≈ 141 µM); MIC [31]: 128 µg/mL (≈ 281 µM); MIC [32]: > 256 µg/mL
CC(C)(O/N=C(\C(=O)N[C@@H]1C(=O)N2C(C(=O)[O-])=C(C[n+]3ccccc3)CS[C@H]12)c1csc(N)n1)C(=O)O [CEFTAZIDIME]	64 µg/mL (≈ 117 µM)	4 µg/mL (≈ 7.32 µM)	256 µg/mL (≈ 468 µM)	8 µg/mL (≈ 14.6 µM)	≤ 0.12 µg/mL	64 µg/mL (≈ 117 µM)	2 µg/mL (≈ 3.66 µM)	> 256 µg/mL	> 256 µg/mL	8 µg/mL (≈ 14.6 µM)	8 µg/mL (≈ 14.6 µM)	32 µg/mL (≈ 58.5 µM)	64 µg/mL (≈ 117 µM)	0.5 µg/mL (≈ 0.915 µM)	256 µg/mL (≈ 468 µM)	4 µg/mL (≈ 7.32 µM)	256 µg/mL (≈ 468 µM)	256 µg/mL (≈ 468 µM)	8 µg/mL (≈ 14.6 µM)	256 µg/mL (≈ 468 µM)	MIC [2]: 8 µg/mL (≈ 14.6 µM); MIC [6]: 64 µg/mL (≈ 117 µM); MIC [8]: 8 µg/mL (≈ 14.6 µM); MIC [11]: 4 µg/mL (≈ 7.32 µM); MIC [26]: 4 µg/mL (≈ 7.32 µM); MIC [28]: 64 µg/mL (≈ 117 µM); MIC [29]: 256 µg/mL (≈ 468 µM); MIC [30]: 8 µg/mL (≈ 14.6 µM); MIC [31]: 4 µg/mL (≈ 7.32 µM); MIC [32]: 128 µg/mL (≈ 234 µM)
